In patent publication US10414811B2, “Protease-resistant lipidated GLP-1 analogs” (MEDIMMUNE LIMITED, priority 2015, dated 2019):
Like-named read-outs stand apart in the source and are kept apart here. Numbered stars: 1 amine (or outer) side, 2 acyl side, 3 side chain; on linkers, the order of the positions; unused ones are H or OH. Square brackets hold non-standard residues; d marks the D form. Side chains are listed from the residue outwards. Peptide text beside a SMILES is read from it. * marks the point of attachment. C18 diacid = O=C(O)CCCCCCCCCCCCCCCCC(=O)*; γGlu = O=C(O)[C@H](CCC(=O)[*:2])N[*:1]; αMeF = C[C@](N)(Cc1ccccc1)C(=O)O; αMeK = C[C@](N)(CCCCN)C(=O)O; Lauroyl = CCCCCCCCCCCC(=O)*; αMeS = C[C@](N)(CO)C(=O)O; AEEA = NCCOCCOCC(=O)O; Aib = CC(C)(N)C(=O)O

Key:
Format in all cases: cell-based
[1] = molecular target: T1, human glucose-dependent insulinotropic peptide receptor (GIPR) (Homo sapiens, UniProt P48546); experiment: cAMP assay, human GIPR cells
T1 construct: expressed in transfected cells
T1 sequence (P48546 22-466): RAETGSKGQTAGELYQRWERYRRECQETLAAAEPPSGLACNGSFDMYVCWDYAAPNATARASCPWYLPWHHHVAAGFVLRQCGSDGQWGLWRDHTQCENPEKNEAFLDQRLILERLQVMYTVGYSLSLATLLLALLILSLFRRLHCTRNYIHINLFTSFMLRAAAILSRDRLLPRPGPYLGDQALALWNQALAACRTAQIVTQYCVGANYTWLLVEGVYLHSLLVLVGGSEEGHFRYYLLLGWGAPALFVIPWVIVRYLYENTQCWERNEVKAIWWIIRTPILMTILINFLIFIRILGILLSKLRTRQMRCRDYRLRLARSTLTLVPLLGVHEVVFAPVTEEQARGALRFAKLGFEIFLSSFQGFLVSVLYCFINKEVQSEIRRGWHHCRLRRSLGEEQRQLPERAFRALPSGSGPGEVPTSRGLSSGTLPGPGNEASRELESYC
Procedure, shortened: (§1)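 Peptide-stimulated cAMP measured by two-step HTRF after a 30 min room-temperature incubation with receptor-expressing cells (hGLP-1R, hGIPR at 1×10^5 cells/ml; hGCGR at 2×10^5 cells/ml). Duplicate dilutions; EC50 from 4-parameter logistic fit of % Delta F.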

[2] = molecular target: T2, human GLP-1 receptor (GLP-1R) (Homo sapiens, UniProt P43220); experiment: cAMP assay, human GLP-1R cells
T2 construct: expressed in transfected cells
Procedure, shortened: as §1

[3] = molecular target: T3, human glucagon receptor (GCGR) (Homo sapiens, UniProt P47871); experiment: cAMP assay, human GCGR cells
T3 construct: expressed in transfected cells
Procedure, shortened: as §1

[4] = mean of n1 and n2, read-out: Mean pM GLP-1R
[5] = tris-lipidated peptides, first replicate, read-out: Primary assay EC50 GIP-R (n1)
[6] = tris-lipidated peptides, mean of n1 and n2, read-out: Primary assay EC50 Mean pM GLP-1R
[7] = tris-lipidated peptides, replicate n1, read-out: Primary assay EC50 GLP-1R n1
[8] = tris-lipidated peptides, replicate n2, read-out: Primary assay EC50 GLP-1R n2
[9] = cAMP assay, first determination (n1), read-out: Primary assay EC50 GIP-R (n1)
[10] = cAMP assay, second determination (n2), read-out: Primary assay EC50 GIP-R (n2)
[11] = cAMP assay, first determination (n1), read-out: Primary assay EC50 GLP-1R n1
[12] = cAMP assay, second determination (n2), read-out: Primary assay EC50 GLP-1R n2
[13] = cAMP assay, first determination (n1), read-out: Primary assay EC50 Gluc-R (n1)
[14] = cAMP assay, second determination (n2), read-out: Primary assay EC50 Gluc-R (n2)

T2 sequence (P43220 24-463): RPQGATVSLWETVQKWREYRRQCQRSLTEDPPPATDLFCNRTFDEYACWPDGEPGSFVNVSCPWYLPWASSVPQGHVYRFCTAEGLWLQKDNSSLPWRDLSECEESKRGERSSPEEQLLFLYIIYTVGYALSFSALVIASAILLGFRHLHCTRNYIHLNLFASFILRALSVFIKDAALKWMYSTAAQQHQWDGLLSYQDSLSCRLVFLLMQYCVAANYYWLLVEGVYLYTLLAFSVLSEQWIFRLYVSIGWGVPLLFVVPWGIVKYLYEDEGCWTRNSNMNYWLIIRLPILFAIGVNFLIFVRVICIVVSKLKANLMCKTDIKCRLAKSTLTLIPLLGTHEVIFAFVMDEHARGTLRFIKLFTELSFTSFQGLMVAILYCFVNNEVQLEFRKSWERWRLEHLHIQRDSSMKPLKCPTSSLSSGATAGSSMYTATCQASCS
T3 sequence (P47871 26-477): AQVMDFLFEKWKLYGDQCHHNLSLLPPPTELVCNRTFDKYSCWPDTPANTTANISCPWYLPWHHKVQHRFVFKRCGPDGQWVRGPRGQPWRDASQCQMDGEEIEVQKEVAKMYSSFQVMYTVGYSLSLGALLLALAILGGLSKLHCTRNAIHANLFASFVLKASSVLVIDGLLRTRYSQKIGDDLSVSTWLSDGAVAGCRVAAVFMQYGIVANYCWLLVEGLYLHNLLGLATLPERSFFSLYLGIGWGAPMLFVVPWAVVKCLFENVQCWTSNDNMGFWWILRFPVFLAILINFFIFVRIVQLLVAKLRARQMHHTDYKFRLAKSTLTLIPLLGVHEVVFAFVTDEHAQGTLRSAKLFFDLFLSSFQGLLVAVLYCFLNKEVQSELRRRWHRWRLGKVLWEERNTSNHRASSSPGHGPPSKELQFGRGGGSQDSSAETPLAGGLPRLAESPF

SMILES	EC50 ([1]; first run (n1), cAMP activity, read-out: Primary assay EC50 GIP-R) [nM]	EC50 ([2]; first run (n1), cAMP activity, read-out: Primary assay EC50 GLP-1R n1) [pM]	EC50 [2, 4] [pM]	EC50 ([2]; second run (n2), cAMP activity, read-out: Primary assay EC50 GLP-1R n2) [pM]	EC50 ([3]; first run (n1), cAMP activity of substituted and mono-lipidated peptides, read-out: Primary assay EC50 Gluc-R) [nM]	EC50 [1, 5] [nM]	EC50 [2, 6] [pM]	EC50 [2, 7] [pM]	EC50 [2, 8] [pM]	EC50 ([3]; tris-lipidated peptides, second replicate, read-out: Primary assay EC50 Gluc-R (n2)) [nM]	EC50 [1, 9] [nM]	EC50 [1, 10] [nM]	EC50 [2, 11] [pM]	EC50 [2, 12] [pM]	EC50 [3, 13] [nM]	EC50 [3, 14] [nM]	EC50 ([3]; tris-lipidated peptides, first replicate, read-out: Primary assay EC50 Gluc-R (n1)) [nM]
CC[C@H](C)[C@H](NC(=O)[C@](C)(Cc1ccccc1)NC(=O)[C@H](CCC(=O)O)NC(=O)[C@](C)(CCCCN)NC(=O)[C@H](C)NC(=O)[C@H](C)NC(=O)[C@H](CCC(=O)O)NC(=O)CNC(=O)[C@H](CCC(=O)O)NC(=O)[C@H](CC(C)C)NC(=O)[C@](C)(Cc1ccccc1)NC(=O)[C@H](CO)NC(=O)[C@](C)(CO)NC(=O)[C@@H](NC(=O)[C@H](CC(=O)O)NC(=O)[C@H](CO)NC(=O)[C@@H](NC(=O)[C@](C)(Cc1ccccc1)NC(=O)[C@H](CO)NC(=O)CNC(=O)[C@H](CCC(=O)O)NC(=O)C(C)(C)NC(=O)[C@@H](N)Cc1c[nH]cn1)[C@@H](C)O)C(C)C)C(=O)N[C@@H](C)C(=O)N[C@@](C)(Cc1ccccc1)C(=O)N[C@H](C(=O)N[C@H](C(=O)N[C@@H](CCCCNC(=O)CC[C@H](NC(=O)CC[C@H](NC(=O)CCCCCCCCCCCCCCCCC(=O)O)C(=O)O)C(=O)O)C(=O)NCC(=O)NCC(N)=O)C(C)C)C(C)C [compound 192]	≥ 27	170	113	60	≥ 27												
CCCCCCCCCCCC(=O)N[C@@H](CCC(=O)NCCOCCOCC(=O)NCCOCCOCC(=O)NCCCC[C@H](NC(=O)CNC(=O)[C@H](CCC(=O)O)NC(=O)[C@H](CCCCNC(=O)COCCOCCNC(=O)COCCOCCNC(=O)CC[C@H](NC(=O)CCCCCCCCCCC)C(=O)O)NC(=O)[C@H](Cc1ccc(O)cc1)NC(=O)[C@H](CO)NC(=O)[C@](C)(CO)NC(=O)[C@@H](NC(=O)[C@H](CC(=O)O)NC(=O)[C@H](CO)NC(=O)[C@@H](NC(=O)[C@](C)(Cc1ccccc1)NC(=O)[C@H](CO)NC(=O)CNC(=O)[C@H](CCC(=O)O)NC(=O)C(C)(C)NC(=O)[C@@H](N)Cc1c[nH]cn1)[C@@H](C)O)C(C)C)C(=O)N[C@@H](C)C(=O)N[C@@H](C)C(=O)N[C@@](C)(CCCCN)C(=O)N[C@@H](CCC(=O)O)C(=O)N[C@@H](Cc1ccccc1)C(=O)N[C@H](C(=O)N[C@@H](C)C(=O)N[C@@H](CCCCNC(=O)COCCOCCNC(=O)COCCOCCNC(=O)CC[C@H](NC(=O)CCCCCCCCCCC)C(=O)O)C(=O)N[C@H](C(=O)N[C@H](C(=O)N[C@@H](CCC(=O)O)C(=O)NCC(=O)NCC(N)=O)C(C)C)C(C)C)[C@@H](C)CC)C(=O)O [compound 468] (H-H[Aib]EGS[αMeF]TSDV[αMeS]SYK([AEEA-AEEA-γGlu-Lauroyl])EGK([AEEA-AEEA-γGlu-Lauroyl])AA[αMeK]EFIAK([AEEA-AEEA-γGlu-Lauroyl])VVEGG-NH2)						20	73.5	62.4	84.5	20							
CC[C@H](C)[C@H](NC(=O)[C@](C)(Cc1ccccc1)NC(=O)[C@H](CCC(=O)O)NC(=O)[C@](C)(CCCCN)NC(=O)[C@H](C)NC(=O)[C@H](C)NC(=O)[C@H](CCC(=O)O)NC(=O)CNC(=O)[C@H](CCC(=O)O)NC(=O)[C@H](CC(C)C)NC(=O)[C@](C)(Cc1ccccc1)NC(=O)[C@H](CO)NC(=O)[C@](C)(CO)NC(=O)[C@@H](NC(=O)[C@H](CCCCNC(=O)COCCOCCNC(=O)COCCOCCNC(=O)CC[C@H](NC(=O)CCCCCCCCCCCCCCCCC(=O)O)C(=O)O)NC(=O)[C@H](CO)NC(=O)[C@@H](NC(=O)[C@](C)(Cc1ccccc1)NC(=O)[C@H](CO)NC(=O)CNC(=O)[C@H](CCC(=O)O)NC(=O)C(C)(C)NC(=O)[C@@H](N)Cc1c[nH]cn1)[C@@H](C)O)C(C)C)C(=O)N[C@@H](C)C(=O)N[C@@](C)(Cc1ccccc1)C(=O)N[C@H](C(=O)N[C@H](C(=O)N[C@@](C)(CCCCN)C(=O)NCC(=O)NCC(N)=O)C(C)C)C(C)C [compound 120] (H-H[Aib]EGS[αMeF]TSK([AEEA-AEEA-γGlu-C18 diacid])V[αMeS]S[αMeF]LEGEAA[αMeK]E[αMeF]IA[αMeF]VV[αMeK]GG-NH2)			3640								≥ 25	≥ 25.3	4100	3130	≥ 25	≥ 25.3	
CCCCCCCCCCCC(=O)N[C@@H](CCC(=O)NCCOCCOCC(=O)NCCOCCOCC(=O)NCCCC[C@H](NC(=O)[C@H](CCC(=O)O)NC(=O)[C@H](CC(C)C)NC(=O)[C@H](Cc1ccc(O)cc1)NC(=O)[C@H](CO)NC(=O)[C@H](CO)NC(=O)[C@H](CCCCNC(=O)COCCOCCNC(=O)COCCOCCNC(=O)CC[C@H](NC(=O)CCCCCCCCCCC)C(=O)O)NC(=O)[C@H](CC(=O)O)NC(=O)[C@H](CO)NC(=O)[C@@H](NC(=O)[C@](C)(Cc1ccccc1)NC(=O)[C@H](CO)NC(=O)CNC(=O)[C@H](CCC(=O)O)NC(=O)C(C)(C)NC(=O)[C@@H](N)Cc1c[nH]cn1)[C@@H](C)O)C(=O)N[C@@H](CCC(=O)O)C(=O)N[C@@H](C)C(=O)N[C@@H](C)C(=O)N[C@@](C)(CCCCN)C(=O)N[C@@H](CCC(=O)O)C(=O)N[C@@H](Cc1ccccc1)C(=O)N[C@H](C(=O)N[C@@H](C)C(=O)N[C@@H](Cc1ccccc1)C(=O)N[C@@H](CCCCNC(=O)COCCOCCNC(=O)COCCOCCNC(=O)CC[C@H](NC(=O)CCCCCCCCCCC)C(=O)O)C(=O)N[C@H](C(=O)N[C@@H](CCC(=O)O)C(=O)NCC(=O)NCC(N)=O)C(C)C)[C@@H](C)CC)C(=O)O [compound 471] (H-H[Aib]EGS[αMeF]TSDK([AEEA-AEEA-γGlu-Lauroyl])SSYLEK([AEEA-AEEA-γGlu-Lauroyl])EAA[αMeK]EFIAFK([AEEA-AEEA-γGlu-Lauroyl])VEGG-NH2)						≥ 19.6	374	277	470								≥ 19.6

Other lines, results leading:

EC50 ([1]; first run (n1), cAMP activity, read-out: Primary assay EC50 GIP-R) [nM]	EC50 ([2]; first run (n1), cAMP activity, read-out: Primary assay EC50 GLP-1R n1) [pM]	EC50 [2, 4] [pM]	EC50 ([2]; second run (n2), cAMP activity, read-out: Primary assay EC50 GLP-1R n2) [pM]	EC50 ([3]; first run (n1), cAMP activity of substituted and mono-lipidated peptides, read-out: Primary assay EC50 Gluc-R) [nM]	EC50 [1, 5] [nM]	EC50 [2, 6] [pM]	EC50 [2, 7] [pM]	EC50 [2, 8] [pM]	EC50 ([3]; tris-lipidated peptides, second replicate, read-out: Primary assay EC50 Gluc-R (n2)) [nM]	EC50 [1, 9] [nM]	EC50 [1, 10] [nM]	EC50 [2, 11] [pM]	EC50 [2, 12] [pM]	EC50 [3, 13] [nM]	EC50 [3, 14] [nM]	EC50 ([3]; tris-lipidated peptides, first replicate, read-out: Primary assay EC50 Gluc-R (n1)) [nM]	SMILES
		119000								0.16	0.079	120000	120000	120	120		CC[C@H](C)[C@H](NC(=O)[C@H](CO)NC(=O)[C@](C)(Cc1ccccc1)NC(=O)[C@H](CC(=O)O)NC(=O)[C@H](CO)NC(=O)[C@@H](NC(=O)[C@](C)(Cc1ccccc1)NC(=O)[C@H](CO)NC(=O)CNC(=O)[C@H](CCC(=O)O)NC(=O)C(C)(C)NC(=O)[C@@H](N)Cc1ccc(O)cc1)[C@@H](C)CC)C(=O)N[C@@H](C)C(=O)N[C@@H](CCSC)C(=O)N[C@@H](CC(=O)O)C(=O)N[C@@H](CCCCN)C(=O)N[C@H](C(=O)N[C@@H](Cc1c[nH]cn1)C(=O)N[C@@H](CCC(N)=O)C(=O)N[C@@H](CCC(N)=O)C(=O)N[C@@H](CC(=O)O)C(=O)N[C@@](C)(Cc1ccccc1)C(=O)N[C@H](C(=O)N[C@@H](CC(N)=O)C(=O)N[C@@](C)(Cc1ccccc1)C(=O)N[C@@H](CC(C)C)C(=O)N[C@@H](CC(C)C)C(=O)N[C@@H](C)C(=O)N[C@@H](CCC(N)=O)C(=O)N[C@@H](CCCCN)C(N)=O)C(C)C)[C@@H](C)CC [compound 15] (H-Y[Aib]EGS[αMeF]ISD[αMeF]SIAMDKIHQQD[αMeF]VN[αMeF]LLAQK-NH2; N-terminus assumed)
		23.2								≥ 27	≥ 27	32	14	≥ 27	≥ 27		CCCCCCCCCCCCCCCCCC(=O)N[C@@H](CCC(=O)N[C@@H](CCC(=O)NCCCC[C@H](NC(=O)[C@H](C)NC(=O)[C@H](C)NC(=O)[C@H](CCC(=O)O)NC(=O)CNC(=O)[C@H](CCC(=O)O)NC(=O)[C@H](CC(C)C)NC(=O)[C@](C)(Cc1ccccc1)NC(=O)[C@H](CO)NC(=O)[C@](C)(CO)NC(=O)[C@@H](NC(=O)[C@H](CC(=O)O)NC(=O)[C@H](CO)NC(=O)[C@@H](NC(=O)[C@](C)(Cc1ccccc1)NC(=O)[C@H](CO)NC(=O)CNC(=O)[C@H](CCC(=O)O)NC(=O)C(C)(C)NC(=O)[C@@H](N)Cc1c[nH]cn1)[C@@H](C)O)C(C)C)C(=O)N[C@@H](CCC(=O)O)C(=O)N[C@@](C)(Cc1ccccc1)C(=O)N[C@H](C(=O)N[C@@H](C)C(=O)N[C@@](C)(Cc1ccccc1)C(=O)N[C@H](C(=O)N[C@H](C(=O)N[C@@](C)(CCCCN)C(=O)NCC(=O)NCC(N)=O)C(C)C)C(C)C)[C@@H](C)CC)C(=O)O)C(=O)O [compound 147]
